The record followed here is patent US4067899A, “Terpenophenols” (Societe Anonyme dite: MAR-PHA, Societe d'Etude et …, priority 1974, dated 1978).

What all share (test): Bacteriostatic activity by the method of streaks in gelose media, minimum inhibitory concentration
Common to all, as to format: cell-based

The test system of one assay is Streptococcus Pyrogenes. Particulars: streaks from 24 hour old culture, gram + ve, read-out: Minimal inhibitory concentration Streptococcus Pyrogenes. On the procedure:
(§1) The bacteriostatic activity of the phenols according to the invention has been evaluated by the method of streaks in gelose media. This method comprises making increasing dilutions of the product to be tested, in nutritive geloses poured into a Petri dish.
(§2) The various bacteria to be studied are then introduced onto the geloses in parallel streaks by means of a platinum loop which has been immersed in a 24 hour old culture of each bacteria.
(§3) The activity of these compounds has been studied vis a vis two gram + ve bacteria, namely Staphylococcus Aureus and Streptococcus Pyrogenes.

The test system of a further assay is Staphylococcus Aureus. Particulars: streaks from 24 hour old culture, gram + ve, read-out: Minimal inhibitory concentration Staphylococcus Aureus. On the procedure:
as §1, §2, §3

The next assay relates to Escherichia Coli. The note with it: streaks from 24 hour old culture, read-out: Minimal inhibitory concentration Escherichia Coli. On the procedure:
as §1, §2

Molecules are shown by their SMILES. Converted amounts (≈) assume the structure as drawn.

With `Cc1cc(O)c(C2CC3CCC2(C)C3(C)C)cc1[N+](=O)[O-]` (centres unmarked) [Example 1, 2-isobornyl-4-nitro-5-methylphenol], the MIC with Streptococcus Pyrogenes was 7.5 µg/mL; in the assay with Staphylococcus Aureus it was 1 µg/mL.

With `Cc1cc(O)c(C2CC3CCC2(C)C3(C)C)cc1Br` (centres unmarked) [Example 2, 2-isobornyl-4-bromo-5-methyl-phenol], the MIC was 15 µg/mL in the assay on Streptococcus Pyrogenes and 5 µg/mL with Staphylococcus Aureus.

As for `CC1(C)C2CCC1(C)C(c1cc([N+](=O)[O-])ccc1O)C2` (centres unmarked) [Example 3, 2-isobornyl-4-nitrophenol], the MIC in the assay with Streptococcus Pyrogenes came to 5 µg/mL; with Staphylococcus Aureus it was 1 µg/mL.

With `CC1(C)C2CCC1(C)C(c1cc(Br)ccc1O)C2` (centres unmarked) [Example 4, 2-isobornyl-4-bromophenol], the MIC with Streptococcus Pyrogenes stood at 30 µg/mL; in the assay with Staphylococcus Aureus it was 2 µg/mL.

On to `O=[N+]([O-])c1ccc(O)c(C2CC3CCC2C3)c1` (stereo not drawn) [Example 5, 2-exo-norbornyl-4-nitrophenol], for which the figures for the MIC with Streptococcus Pyrogenes and in the assay with Staphylococcus Aureus were 10 µg/mL and 5 µg/mL, respectively.

On to `CC1C2CC(CC2c2cc(Br)ccc2O)C1(C)C` (centres unmarked) [Example 6, 2-isocamphyl-4-bromophenol], for which the MIC in the assay with Streptococcus Pyrogenes amounted to 5 µg/mL; in the assay with Staphylococcus Aureus, 2.5 µg/mL.

For the compound `Cc1cc(O)c(C2CC3CCC2(C)C3(C)C)cc1Cl` (centres unmarked) [Example 7, 2-isobornyl-4-chloro-5-methylphenol], the MIC was determined as 5 µg/mL in the assay with Streptococcus Pyrogenes and 2.5 µg/mL in the assay with Staphylococcus Aureus.

Take `Oc1ccc(Br)cc1C1CC2CCC1C2` (stereo not drawn) [Example 8, 2-exo-norbornyl-4-bromophenol]: the MIC is 7.5 µg/mL (≈ 28.1 µM) in the assay on Escherichia Coli, 20 µg/mL in the assay on Streptococcus Pyrogenes and 7.5 µg/mL in the assay with Staphylococcus Aureus.

For `Cc1cc(O)c(C2CC3CCC2C3)cc1Br` (stereo not drawn) [Example 9, 2-exo-norbornyl-4-bromo-5-methylphenol], the MIC was 20 µg/mL (≈ 71.1 µM) with Escherichia Coli and 5 µg/mL with Staphylococcus Aureus.

Take `Oc1ccc(Cl)cc1C1CC2CCC1C2` (stereo not drawn) [Example 10, 2-exo-norbornyl-4-chlorophenol]: the results for the MIC with Escherichia Coli and in the assay on Staphylococcus Aureus were 10 µg/mL (≈ 44.9 µM) and 5 µg/mL, respectively.

Turning to `CC1(C)C2CCC1(C)C(c1cc(Cl)ccc1O)C2` (centres unmarked) [Example 11, 2-isobornyl-4-chlorophenol], the MIC in the assay on Streptococcus Pyrogenes is 10 µg/mL; with Staphylococcus Aureus it was 2.5 µg/mL.

As to `COc1cc(C)c(O)cc1C1CC2CCC1(C)C2(C)C` (centres unmarked) [Example 12, 2-methyl-4-methoxy-5-isobornyl phenol], the MIC with Staphylococcus Aureus is 5 µg/mL.

As for `Cc1ccc(O)c(C2CC3CC2C(C)C3(C)C)c1` (centres unmarked) [Example 13, 2-isocamphyl-4-methylphenol], the MIC in the assay on Streptococcus Pyrogenes turned out to be 20 µg/mL; with Staphylococcus Aureus, 5 µg/mL.

In the case of `COc1ccc(O)cc1C1CC2CCC1(C)C2(C)C` (centres unmarked) [Example 14, 3-isobornyl-4-methoxyphenol], the MIC was found to be 10 µg/mL with Streptococcus Pyrogenes and 5 µg/mL in the assay on Staphylococcus Aureus.

Turning to `Cc1cc(O)c(C2CC3CCC2(C)C3(C)C)cc1C#N` (centres unmarked) [Example 15, 2-isobornyl-4-cyano-5-methylphenol], the MIC is 10 µg/mL with Streptococcus Pyrogenes and 5 µg/mL in the assay with Staphylococcus Aureus.

Consider `CC1(C)C2CCC1(C)C(c1cc(C#N)ccc1O)C2` (centres unmarked) [Example 16, 2-isobornyl-4-cyano phenol], for which the MIC with Streptococcus Pyrogenes worked out at 7.5 µg/mL; in the assay with Staphylococcus Aureus, 5 µg/mL.
